{"source": "patent US20260130900A1", "about": "“Controlled Release Pharmaceutical Composition” (Daewoong Pharmaceutical Co., Ltd., priority 2022, published 2026)", "assay": "Single-dose escalating clinical testing, safety/tolerability of the active ingredient", "format": "in vivo, human", "source_text": "In order to confirm the safety/tolerability of the active ingredient in the human body, side effects were checked in healthy adult subjects.\nThe clinical testing was designed for 32 healthy adult subjects in a randomized, double-blinded, placebo-controlled, single-dose escalating manner, as shown in Table 1 below. The capsule tablets used in this clinical testing were produced by using Vcaps® enteric-coated capsules containing only the active ingredient in hydrochloride form without additional excipients, and filling capsules by volume. The ingredients of the enteric-coated tablet (1 tablet) used in the clinical testing are shown in Table 2 below, and were named ‘Comparative Example 1’. In addition, for the enteric-coated tablet administrated group, 5 tablets were administered at a time.", "data": [{"smiles": "O[C@H]1CCCN[C@@H]1CCCn1cnc2c(Cl)c(Cl)ccc21", "note": "[API, (2R,3S)-2-(3-(4,5-dichloro-1H-benzo[d]imidazol-1-yl)propyl) piperidin-3-ol 1HCl]", "values": [{"measurement": "time of occurrence of nausea and vomiting side effects versus exposure in the body", "setting": "single administration, FIG. 1", "result": "the majority of cases occur before the blood concentration in the body increases"}, {"measurement": "most frequently occurring adverse reactions", "setting": "single oral administration 100-600 mg, enteric coated capsule or tablet, healthy adult subjects", "result": "gastrointestinal adverse reactions including nausea, vomiting, diarrhea, and abdominal pain"}]}]}
